The text below walks through data of publication PMC8550792, “Evolution of kinase polypharmacology across HSP90 drug discovery” (Cell Chemical Biology, 2021).

What all share (assay): biochemical
What all share (assay type): biochemical

For assay [1], the target named is T1, 382 unique human kinases (Homo sapiens, UniProt Q16512).
T1 construct: purchased Reaction Biology (HotSpot contract assay)
Particulars: PKN1/PRK1, 10 uM; for remaining activity at 10 µM: read-out: % Enzyme Activity (relative to DMSO controls).

Assay [2] concerns the target T2, 382 unique human kinases (Homo sapiens, UniProt Q04759).
T2 construct: purchased Reaction Biology (HotSpot contract assay)
To be noted: PKCtheta, compound at 10 uM, duplicate values; for remaining activity at 10 µM: read-out: % Enzyme Activity (relative to DMSO controls).

Assay [3] has as its target T3, 382 unique human kinases (Homo sapiens, UniProt Q9NWZ3).
T3 construct: purchased Reaction Biology (HotSpot contract assay)
T3 sequence (Q9NWZ3 1-460): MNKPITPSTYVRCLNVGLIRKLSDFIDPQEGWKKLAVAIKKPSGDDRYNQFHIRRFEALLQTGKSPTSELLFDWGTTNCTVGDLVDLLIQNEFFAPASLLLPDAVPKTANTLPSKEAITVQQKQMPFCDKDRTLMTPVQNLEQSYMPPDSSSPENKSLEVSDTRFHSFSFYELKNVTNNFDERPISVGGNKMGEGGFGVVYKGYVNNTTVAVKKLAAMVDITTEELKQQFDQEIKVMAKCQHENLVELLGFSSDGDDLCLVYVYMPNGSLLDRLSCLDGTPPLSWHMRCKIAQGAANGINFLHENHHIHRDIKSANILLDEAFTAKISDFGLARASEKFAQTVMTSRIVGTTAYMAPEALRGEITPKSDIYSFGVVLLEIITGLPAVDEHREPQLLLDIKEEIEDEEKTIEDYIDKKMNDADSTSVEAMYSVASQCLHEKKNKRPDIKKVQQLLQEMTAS
Particulars: kinase IRAK4, compound 10 uM; for remaining activity at 10 µM: read-out: % Enzyme Activity (relative to DMSO controls).

Assay [4] concerns the target T4, 382 unique human kinases (Homo sapiens, UniProt Q9NRH2).
T4 construct: purchased Reaction Biology (HotSpot contract assay)
T4 sequence (Q9NRH2 1-765): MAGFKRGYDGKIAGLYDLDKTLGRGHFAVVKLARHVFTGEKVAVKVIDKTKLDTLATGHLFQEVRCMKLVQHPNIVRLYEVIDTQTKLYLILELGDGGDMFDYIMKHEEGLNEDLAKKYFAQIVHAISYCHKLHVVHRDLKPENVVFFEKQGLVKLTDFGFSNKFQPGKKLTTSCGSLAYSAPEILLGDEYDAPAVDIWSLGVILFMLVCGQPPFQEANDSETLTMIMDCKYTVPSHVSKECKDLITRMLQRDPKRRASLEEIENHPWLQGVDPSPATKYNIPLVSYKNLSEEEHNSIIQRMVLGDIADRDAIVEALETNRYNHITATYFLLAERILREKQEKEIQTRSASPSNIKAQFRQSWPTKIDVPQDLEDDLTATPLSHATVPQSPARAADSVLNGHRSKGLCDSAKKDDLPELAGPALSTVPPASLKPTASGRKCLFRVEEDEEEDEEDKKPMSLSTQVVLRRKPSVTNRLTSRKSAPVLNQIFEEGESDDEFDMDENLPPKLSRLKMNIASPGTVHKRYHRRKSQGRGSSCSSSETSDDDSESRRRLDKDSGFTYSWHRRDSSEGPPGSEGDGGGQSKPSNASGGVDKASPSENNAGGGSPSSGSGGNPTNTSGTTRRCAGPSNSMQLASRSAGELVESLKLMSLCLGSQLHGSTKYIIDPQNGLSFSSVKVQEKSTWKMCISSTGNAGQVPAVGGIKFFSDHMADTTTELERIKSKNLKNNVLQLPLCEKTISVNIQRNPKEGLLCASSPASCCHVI
To be noted: SNRK, 10 uM; for remaining activity at 10 µM: read-out: % Enzyme Activity (relative to DMSO controls).

Assay [5] deals with T5, 382 unique human kinases (Homo sapiens, UniProt Q6P3R8).
T5 construct: purchased Reaction Biology (HotSpot contract assay)
T5 sequence (Q6P3R8 1-708): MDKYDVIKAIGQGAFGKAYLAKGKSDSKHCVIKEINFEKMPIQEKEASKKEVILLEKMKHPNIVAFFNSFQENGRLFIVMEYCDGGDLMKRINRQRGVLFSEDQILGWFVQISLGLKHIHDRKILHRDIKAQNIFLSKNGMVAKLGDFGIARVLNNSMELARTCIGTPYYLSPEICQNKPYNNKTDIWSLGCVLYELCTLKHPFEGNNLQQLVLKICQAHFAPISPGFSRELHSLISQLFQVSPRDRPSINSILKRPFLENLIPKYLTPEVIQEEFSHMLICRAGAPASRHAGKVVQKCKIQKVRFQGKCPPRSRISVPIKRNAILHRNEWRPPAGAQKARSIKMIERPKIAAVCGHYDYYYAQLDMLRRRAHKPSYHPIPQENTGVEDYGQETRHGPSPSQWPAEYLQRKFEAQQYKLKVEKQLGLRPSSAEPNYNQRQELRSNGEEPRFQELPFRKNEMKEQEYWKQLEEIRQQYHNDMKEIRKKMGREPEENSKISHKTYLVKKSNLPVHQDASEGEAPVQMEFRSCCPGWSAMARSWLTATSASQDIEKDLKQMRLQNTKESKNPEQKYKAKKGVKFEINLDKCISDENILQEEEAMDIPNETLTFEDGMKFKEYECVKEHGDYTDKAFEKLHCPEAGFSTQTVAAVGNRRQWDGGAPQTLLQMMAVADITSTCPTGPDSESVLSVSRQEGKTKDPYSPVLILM
Particulars: NEK5, 10 uM; for remaining activity at 10 µM: read-out: % Enzyme Activity (relative to DMSO controls).

In assay [6] the target is T6, 382 unique human kinases (Homo sapiens, UniProt P21802).
T6 construct: purchased Reaction Biology (HotSpot contract assay)
T6 sequence (P21802 22-821): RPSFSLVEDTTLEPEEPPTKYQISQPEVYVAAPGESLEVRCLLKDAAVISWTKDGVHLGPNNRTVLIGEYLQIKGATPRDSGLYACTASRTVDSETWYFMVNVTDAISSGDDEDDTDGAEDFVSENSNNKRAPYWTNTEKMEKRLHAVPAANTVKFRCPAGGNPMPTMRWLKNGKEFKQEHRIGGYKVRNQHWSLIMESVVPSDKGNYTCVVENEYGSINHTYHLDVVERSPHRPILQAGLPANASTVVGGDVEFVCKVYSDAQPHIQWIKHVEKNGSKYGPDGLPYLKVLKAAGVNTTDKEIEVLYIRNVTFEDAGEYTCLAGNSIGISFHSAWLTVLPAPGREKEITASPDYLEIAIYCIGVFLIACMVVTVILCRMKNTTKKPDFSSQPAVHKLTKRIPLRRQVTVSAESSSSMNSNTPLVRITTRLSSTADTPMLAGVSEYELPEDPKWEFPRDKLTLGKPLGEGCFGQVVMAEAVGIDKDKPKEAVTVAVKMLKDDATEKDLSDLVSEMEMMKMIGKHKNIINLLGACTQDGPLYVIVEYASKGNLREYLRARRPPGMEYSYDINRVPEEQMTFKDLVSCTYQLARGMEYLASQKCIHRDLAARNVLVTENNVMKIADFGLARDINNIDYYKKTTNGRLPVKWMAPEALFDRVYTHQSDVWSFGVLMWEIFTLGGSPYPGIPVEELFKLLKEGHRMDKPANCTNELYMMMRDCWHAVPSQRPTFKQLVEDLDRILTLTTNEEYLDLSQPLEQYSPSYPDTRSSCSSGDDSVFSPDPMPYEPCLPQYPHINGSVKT
To be noted: FGFR2, 10 uM; for remaining activity at 10 µM: read-out: % Enzyme Activity (relative to DMSO controls).

Assay [7] addresses T7, 382 unique human kinases (Homo sapiens, UniProt Q13555).
T7 construct: purchased Reaction Biology (HotSpot contract assay)
Particulars: CAMK2g, 10 uM; for remaining activity at 10 µM: read-out: % Enzyme Activity (relative to DMSO controls).

Assay [8] addresses T8, 382 unique human kinases (Homo sapiens, UniProt P31749, E17K).
T8 construct: purchased Reaction Biology (HotSpot contract assay)
To be noted: AKT1 (E17K), 10 uM; for remaining activity at 10 µM: read-out: % Enzyme Activity (relative to DMSO controls).

T8 sequence (P31749 whole entry E17K): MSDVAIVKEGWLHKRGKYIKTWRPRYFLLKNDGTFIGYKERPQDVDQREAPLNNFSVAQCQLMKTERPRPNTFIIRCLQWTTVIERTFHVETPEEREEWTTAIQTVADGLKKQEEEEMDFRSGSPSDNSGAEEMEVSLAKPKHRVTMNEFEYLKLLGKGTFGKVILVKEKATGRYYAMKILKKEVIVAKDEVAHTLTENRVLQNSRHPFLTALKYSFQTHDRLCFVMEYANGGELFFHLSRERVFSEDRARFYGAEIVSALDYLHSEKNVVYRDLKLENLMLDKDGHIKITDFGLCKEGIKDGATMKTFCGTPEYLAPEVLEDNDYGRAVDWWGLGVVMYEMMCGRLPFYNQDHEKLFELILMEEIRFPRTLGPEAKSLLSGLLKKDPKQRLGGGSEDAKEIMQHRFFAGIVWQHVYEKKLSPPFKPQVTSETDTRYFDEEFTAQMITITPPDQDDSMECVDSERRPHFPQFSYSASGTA
T1 sequence (Q16512 whole entry): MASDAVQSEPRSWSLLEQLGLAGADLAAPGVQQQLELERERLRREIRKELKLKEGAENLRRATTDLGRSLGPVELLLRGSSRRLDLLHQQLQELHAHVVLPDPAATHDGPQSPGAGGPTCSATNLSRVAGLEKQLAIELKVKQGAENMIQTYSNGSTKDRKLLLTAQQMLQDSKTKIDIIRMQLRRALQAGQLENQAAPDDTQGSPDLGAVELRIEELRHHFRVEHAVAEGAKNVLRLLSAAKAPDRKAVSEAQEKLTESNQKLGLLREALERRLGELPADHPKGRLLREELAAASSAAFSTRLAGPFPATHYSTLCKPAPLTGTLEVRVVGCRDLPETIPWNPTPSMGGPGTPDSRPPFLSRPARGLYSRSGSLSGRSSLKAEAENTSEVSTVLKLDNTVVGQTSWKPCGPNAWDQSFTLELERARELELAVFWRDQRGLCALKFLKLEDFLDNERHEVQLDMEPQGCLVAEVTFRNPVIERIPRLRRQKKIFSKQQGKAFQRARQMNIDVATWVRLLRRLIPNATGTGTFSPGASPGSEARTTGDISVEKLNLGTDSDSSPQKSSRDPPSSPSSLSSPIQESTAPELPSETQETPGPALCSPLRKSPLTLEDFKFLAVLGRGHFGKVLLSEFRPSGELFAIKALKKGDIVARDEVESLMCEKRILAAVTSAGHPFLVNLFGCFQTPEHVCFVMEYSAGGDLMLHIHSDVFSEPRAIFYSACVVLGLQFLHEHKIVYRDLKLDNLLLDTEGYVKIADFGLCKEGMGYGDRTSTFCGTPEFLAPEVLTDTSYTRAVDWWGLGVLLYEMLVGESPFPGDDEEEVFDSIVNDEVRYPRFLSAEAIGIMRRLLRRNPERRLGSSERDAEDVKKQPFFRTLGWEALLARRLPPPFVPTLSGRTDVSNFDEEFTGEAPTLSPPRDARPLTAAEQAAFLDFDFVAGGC
T7 sequence (Q13555 whole entry): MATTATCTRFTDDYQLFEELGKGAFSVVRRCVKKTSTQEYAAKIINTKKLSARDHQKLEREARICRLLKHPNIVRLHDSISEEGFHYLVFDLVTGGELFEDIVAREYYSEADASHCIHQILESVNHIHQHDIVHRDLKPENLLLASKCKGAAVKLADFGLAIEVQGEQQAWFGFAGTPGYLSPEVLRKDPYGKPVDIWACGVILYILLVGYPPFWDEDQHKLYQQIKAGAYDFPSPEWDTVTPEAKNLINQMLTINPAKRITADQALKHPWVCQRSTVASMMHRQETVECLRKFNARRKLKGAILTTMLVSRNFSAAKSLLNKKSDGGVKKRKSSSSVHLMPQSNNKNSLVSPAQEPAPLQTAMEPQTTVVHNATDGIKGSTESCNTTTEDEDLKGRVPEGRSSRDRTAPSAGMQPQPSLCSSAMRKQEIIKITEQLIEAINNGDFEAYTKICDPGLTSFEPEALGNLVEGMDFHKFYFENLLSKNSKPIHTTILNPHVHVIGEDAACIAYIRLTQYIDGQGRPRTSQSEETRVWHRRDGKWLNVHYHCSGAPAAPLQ
T2 sequence (Q04759 whole entry): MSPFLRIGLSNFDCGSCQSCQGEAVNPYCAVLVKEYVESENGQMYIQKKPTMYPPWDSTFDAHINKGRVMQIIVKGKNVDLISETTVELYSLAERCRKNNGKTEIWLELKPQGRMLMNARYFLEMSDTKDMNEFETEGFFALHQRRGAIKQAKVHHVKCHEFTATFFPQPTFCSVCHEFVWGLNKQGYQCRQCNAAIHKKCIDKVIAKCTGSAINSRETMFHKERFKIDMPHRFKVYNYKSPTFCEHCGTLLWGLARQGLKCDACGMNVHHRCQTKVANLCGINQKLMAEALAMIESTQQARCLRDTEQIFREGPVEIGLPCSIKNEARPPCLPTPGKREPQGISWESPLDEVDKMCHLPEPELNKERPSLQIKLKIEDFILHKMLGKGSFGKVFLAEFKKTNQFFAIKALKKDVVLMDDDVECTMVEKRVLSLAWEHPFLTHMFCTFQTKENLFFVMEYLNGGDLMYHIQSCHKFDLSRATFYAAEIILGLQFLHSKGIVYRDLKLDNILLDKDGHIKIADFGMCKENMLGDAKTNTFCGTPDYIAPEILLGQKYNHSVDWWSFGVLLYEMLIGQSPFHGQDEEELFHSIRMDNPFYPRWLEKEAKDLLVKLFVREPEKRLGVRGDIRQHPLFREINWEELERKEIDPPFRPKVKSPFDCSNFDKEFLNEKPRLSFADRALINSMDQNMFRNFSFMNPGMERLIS

As to `CC(C)c1cc(-c2n[nH]c(=O)n2-c2ccc3c(ccn3C)c2)c(O)cc1O` [Ganetespib (STA9090)], the remaining activity at 10 µM turned out to be 71.7% on 382 unique human kinases [1]; 148% on 382 unique human kinases [2]; 81.5% on 382 unique human kinases [3]; 76.8% at 382 unique human kinases [4]; 105% at 382 unique human kinases [5]; 68.3% at 382 unique human kinases [6].
As for `CC(C)c1cc(-c2n[nH]c(=O)n2-c2ccc3c(ccn3C)c2)c(O)cc1O` [Ganetespib], the results for the remaining activity at 10 µM on 382 unique human kinases [7] and at 382 unique human kinases [8] were 98.8% and 94.2%, respectively.
Regarding `CCNC(=O)c1noc(-c2cc(C(C)C)c(O)cc2O)c1-c1ccc(CN2CCOCC2)cc1` [Luminespib (AUY-922)], the “% Enzyme Activity (relative to DMSO controls)” value on 382 unique human kinases [1] was found to be 73.04%; on 382 unique human kinases [2], 101.70%; at 382 unique human kinases [3] it was 106.93%; at 382 unique human kinases [4], 79.00%; on 382 unique human kinases [5] it was 66.42%; at 382 unique human kinases [6], 98.90%. The remaining activity at 10 µM at 382 unique human kinases [1] turned out to be 75.6%; on 382 unique human kinases [2], 102%; on 382 unique human kinases [3], 118%; on 382 unique human kinases [4] it was 80.5%; on 382 unique human kinases [5] it was 70.4%; at 382 unique human kinases [6] it was 99.8%.
In the case of `CCNC(=O)c1noc(-c2cc(C(C)C)c(O)cc2O)c1-c1ccc(CN2CCOCC2)cc1` [Luminespib], the “% Enzyme Activity (relative to DMSO controls)” value on 382 unique human kinases [7] was 105.88%; at 382 unique human kinases [8], 93.12%. In addition, the results for the remaining activity at 10 µM at 382 unique human kinases [7] and at 382 unique human kinases [8] were 106% and 101%, respectively.
